Usually inhibition stands for the drop in the measured response relative to a control, in per cent. Higher therefore signals a response far below the control. As a reminder, the melting point is the temperature of the solid-liquid transition.

The test system of one series is IL-5 production. Put plainly: In vitro inhibition of IL-5 production in human blood. Type of series: cell-based. Conditions: test dose 1×10^−6 M; human whole blood stimulated with phytohemagglutinin, 48 hours, ELISA. As to the method:
In Vitro Inhibition of IL-5 Production in Human Blood
Human Whole Blood Stimulation
Peripheral blood from healthy male donors was drawn into heparinized syringes (12.5 U heparin/ml). Blood samples were three-fold diluted in RMPI 1640 medium (Life Technologies, Belgium) supplemented with 2 mM L-glutamine, 100 U/ml penicillin and 100 μg/ml streptomycin, and 300 μl fractions were distributed in 24-well multidisc plates. Blood samples were preincubated (60 minutes at 37° C.) in a humidified 6% CO2-atmosphere with 100 μl of drug solvent (final concentration 0.02% dimethylsulfoxide in RPMI 1640) or with 100 μl of an appropriate dose of test compound before being stimulated by the addition of 100 μl of phytohemagglutinin HA17 (Murex, UK) at a final concentration of 2 μg/ml. After 48 hours, cell-free supernatant fluids were collected by centrifugation and stored at −70° C. until tested for the presence of IL-5.
IL-5 measurements were conducted as described in Van Wauwe et al. (1996, Inflamm Res, 45, 357-363) on page 358 using ELISA.
Table 8 lists the percentage inhibition of IL-5 production (column “% inhibition”) at a test dose of 1×10^−6 M, or in case the percentage inhibition is marked with an “*” 1×10^−5 M, for the compounds of the present invention including compounds of formula (I) which have been disclosed in U.S. Pat. No. 4,631,278 (Ref. A) or U.S. Pat. No. 4,767,760 (Ref: B) as summarized in table 7.
Background: An ELISA detects its analyte on a solid surface through an enzyme-linked reagent.
`CON(C)C(=O)C(c1ccc(Cl)cc1)c1ccc(-n2ncc(=O)[nH]c2=O)cc1Cl` (racemic) [1.6, (±)-2-chloro-α-(4-chlorophenyl)-N-methoxy-N-methyl-4-(4,5-dihydro-3,5-dioxo-1,2,4-triazin-2(3H)-yl)benzeneacetamide] had an inhibition at 1 µM of 49%.

On to `CC(C#N)(c1ccc(Cl)c(C(F)(F)F)c1)c1c(Cl)cc(-n2ncc(=O)[nH]c2=O)cc1Cl` (racemic) [1.7, (±)-2,6-dichloro-α-[4-chloro-3-(trifluoromethyl)phenyl]-4-(4,5-dihydro-3,5-dioxo-1,2,4-triazin-2(3H)-yl)-α-methylbenzeneacetonitrile], for which the inhibition at 1 µM was found to be 92%.

Regarding `CC(C#N)(c1ccc(Cl)cc1)c1c(Cl)cc(-n2ncc(=O)[nH]c2=O)cc1Cl` (racemic) [1.11, (±)-2,6-dichloro-α-(4-chlorophenyl)-4-(4,5-dihydro-3,5-dioxo-1,2,4-triazin-2(3H)-yl)-α-methylbenzeneacetonitrile], the inhibition at 1 µM was determined as 12%.

The compound `CNC(=O)C(C)(c1ccc(Cl)cc1)c1ccc(-n2ncc(=O)[nH]c2=O)cc1Cl` (racemic) [1.14, (±)-2-chloro-α-(4-chlorophenyl)-4-(4,5-dihydro-3,5-dioxo-1,2,4-triazin-2(3H)-yl)-α,N-dimethylbenzeneacetamide] registered an inhibition at 1 µM of 9%.

`O=C(c1nc2ccccc2s1)C(c1ccc(Cl)cc1)c1ccc(-n2ncc(=O)[nH]c2=O)cc1Cl` (racemic) [1.20, (±)-2-[4-[2-(2-benzothiazolyl)-1-(4-chlorophenyl)-2-oxoethyl]-3-chlorophenyl]-1,2,4-triazin-3,5(2H,4H)-dione] registered an inhibition at 1 µM of 80%.

For the compound `CC(C(N)=S)(c1ccc(Cl)cc1)c1ccc(-n2ncc(=O)[nH]c2=O)cc1Cl` (racemic) [1.21, (±)-2-chloro-α-(4-chlorophenyl)-α-methyl-4-(4,5-dihydro-3,5-dioxo-1,2,4-triazin-2(3H)-yl)benzeneethanethioamide], the inhibition at 1 µM is 33%.

Turning to `CC(C#N)(c1ccc(Cl)c(C(F)(F)F)c1)c1cccc(-n2ncc(=O)[nH]c2=O)c1Cl` (racemic) [1.36, (±)-4-chloro-α-[2-chloro-3-(4,5-dihydro-3,5-dioxo-1,2,4-triazin-2(3H)-yl)phenyl]-α-methyl-3-(trifluoromethyl)benzeneacetonitrile], 1 µM produced 44% inhibition.

`CN(C)CCCC(C#N)(c1ccc(Cl)cc1)c1ccc(-n2ncc(=O)[nH]c2=O)cc1Cl` (racemic) [1.58, (±)-2-chloro-α-(4-chlorophenyl)-4-(4,5-dihydro-3,5-dioxo-1,2,4-triazin-2(3H)-yl)-α-[3-(dimethylamino)propyl]-benzeneacetonitrile] came in with an inhibition at 1 µM of 28%.

On to `CC(C#N)(c1ccc(Cl)c(C(F)(F)F)c1)c1cc(-n2ncc(=O)[nH]c2=O)ccc1Cl` (stereo not shown) [1.35], for which the inhibition at 1 µM stood at 33%.

`N#CC(c1ccc(Cl)c(C(F)(F)F)c1)c1cc(-n2ncc(=O)[nH]c2=O)ccc1Cl` (stereo not shown) [1.37]: the inhibition at 1 µM was 12%.

The compound `N#CC(c1ccc(Cl)cc1)c1ccc(-n2ncc(=O)[nH]c2=O)cc1` (stereo not drawn) [1.41, α-(4-chlorophenyl)-4-(4,5-dihydro-3,5-dioxo-1,2,4-triazin-2(3H)-yl) benzeneacetonitrile] displayed an inhibition at 1 µM of 13%.

Tested on in the next series: not given
Test: not given
Settings: not given
For the compound `CN(C)CCCC(C#N)(c1ccc(Cl)cc1)c1ccc(-n2ncc(=O)[nH]c2=O)cc1Cl` (racemic) [1.58, (±)-2-chloro-α-(4-chlorophenyl)-4-(4,5-dihydro-3,5-dioxo-1,2,4-triazin-2(3H)-yl)-α-[3-(dimethylamino)propyl]-benzeneacetonitrile], the melting point amounted to 140 °C.

Compound `N#CC(c1ccc(Cl)cc1)c1ccc(-n2ncc(=O)[nH]c2=O)cc1` (stereo not drawn) [1.41, α-(4-chlorophenyl)-4-(4,5-dihydro-3,5-dioxo-1,2,4-triazin-2(3H)-yl) benzeneacetonitrile] had a melting point of 206.3 °C.
